Laboratory results from the NIST ThermoML archive (doi:10.1016/j.tca.2005.10.008).

Key:
[1] = xn = mol fraction of the nth substance listed; settings: 303.15 K, 101 kPa, Liquid; for viscosity: Capillary tube (Ostwald / Ubbelohde) method; for excess molar volume: Direct dilatometry; for speed of sound: Linear variable-path acoustic interferometer
[2] = Liquid; for mass density: 101.33 kPa, Pycnometric method; for viscosity / speed of sound: 101.3 kPa; for viscosity: Capillary tube (Ostwald / Ubbelohde) method; for speed of sound: Linear variable-path acoustic interferometer; for Normal boiling temperature: Distillation

CC(C)OC(C)C [diisopropyl ether] + CCCCCC
[1]
Settings | excess molar volume [m3/mol] | speed of sound [m/s] | viscosity [mPa·s]
x1 = 0.1305 | 1.37e-07 | 1039.2 | 0.312
x1 = 0.2555 | 2.45e-07 | 1027.5 | 0.315
x1 = 0.392 | 3.26e-07 | 1016 | 0.319
x1 = 0.4661 | 3.44e-07 | 1009.9 | 0.321
x1 = 0.5633 | 3.34e-07 | 1002.6 | 0.325
x1 = 0.605 | 3.25e-07 | 999.6 | 0.326
x1 = 0.7173 | 2.79e-07 | 992.4 | 0.331
x1 = 0.846 | 1.74e-07 | 984.4 | 0.338
x1 = 1 | – | 974.9 | 0.35

c1ccccc1 [benzene]
[2]
Settings | mass density [kg/m3] | speed of sound [m/s] | viscosity [mPa·s]
298.15 K | 873.64 | – | –
303.15 K | 868.39 | 1275.5 | 0.566

Settings | Normal boiling temperature [°C]
[2] | 80.00

CC(C)OC(C)C [diisopropyl ether] + C1CCC2CCCCC2C1
[1], x1 = 1
Settings | speed of sound [m/s] | viscosity [mPa·s]
– | 974.9 | 0.35

C1CCC2CCCCC2C1 (stereo not given) [decahydronaphthalene] + CC(C)OC(C)C
[1]
Settings | excess molar volume [m3/mol] | speed of sound [m/s] | viscosity [mPa·s]
x2 = 0 | – | 1404 | 2.091
x2 = 0.1596 | -4e-07 | 1329 | 1.586
x2 = 0.2785 | -6.03e-07 | 1282.3 | 1.289
x2 = 0.4286 | -7.39e-07 | 1220.1 | 0.989
x2 = 0.4734 | -7.6e-07 | 1199.7 | 0.913
x2 = 0.6153 | -7.24e-07 | 1141.3 | 0.706
x2 = 0.7514 | -5.84e-07 | 1084.9 | 0.553
x2 = 0.8663 | -3.59e-07 | 1035.8 | 0.448

CC(C)CC(C)(C)C [2,2,4-trimethylpentane] + CC(C)OC(C)C
[1], x2 = 0
Settings | speed of sound [m/s] | viscosity [mPa·s]
– | 1060.8 | 0.455

CC(C)OC(C)C [diisopropyl ether] + CCCCCCCC
[1]
Settings | excess molar volume [m3/mol] | speed of sound [m/s] | viscosity [mPa·s]
x1 = 0.165 | 1.58e-07 | 1125.5 | 0.464
x1 = 0.2501 | 2.26e-07 | 1112.3 | 0.451
x1 = 0.3816 | 2.95e-07 | 1090.5 | 0.429
x1 = 0.4395 | 3.04e-07 | 1080.3 | 0.417
x1 = 0.4911 | 3.02e-07 | 1071.7 | 0.404
x1 = 0.6217 | 2.78e-07 | 1048.3 | 0.381
x1 = 0.7805 | 2.03e-07 | 1018.9 | 0.36
x1 = 0.8706 | 1.26e-07 | 1000.4 | 0.354
x1 = 1 | – | 974.9 | 0.35

CCCCCC [hexane] + CC(C)OC(C)C
[1], x2 = 0
Settings | speed of sound [m/s] | viscosity [mPa·s]
– | 1052.9 | 0.309

CCCCCCC [heptane] + CC(C)OC(C)C
[1], x2 = 0
Settings | speed of sound [m/s] | viscosity [mPa·s]
– | 1110.5 | 0.387

C1CCC2CCCCC2C1 (stereo not given) [decahydronaphthalene]
[2]
Settings | mass density [kg/m3] | speed of sound [m/s] | viscosity [mPa·s]
298.15 K | 879.14 | – | –
303.15 K | 868.5 | 1404 | 2.091

Settings | Normal boiling temperature [°C]
[2] | 191.10

c1ccc2c(c1)CCCC2 [1,2,3,4-tetrahydronaphthalene] + CC(C)OC(C)C
[1]
Settings | excess molar volume [m3/mol] | speed of sound [m/s] | viscosity [mPa·s]
x2 = 0 | – | 1477 | 1.749
x2 = 0.1358 | -7.08e-07 | 1396.1 | 1.445
x2 = 0.2509 | -1.135e-06 | 1342.5 | 1.223
x2 = 0.3997 | -1.459e-06 | 1276.3 | 0.976
x2 = 0.4474 | -1.505e-06 | 1253 | 0.904
x2 = 0.5718 | -1.503e-06 | 1191.8 | 0.739
x2 = 0.7163 | -1.261e-06 | 1119.7 | 0.578
x2 = 0.8473 | -8.13e-07 | 1054.2 | 0.46

CC(C)OC(C)C [diisopropyl ether] + c1ccc2c(c1)CCCC2
[1], x1 = 1
Settings | speed of sound [m/s] | viscosity [mPa·s]
– | 974.9 | 0.35

CCCCCC [hexane]
[2]
Settings | mass density [kg/m3] | speed of sound [m/s] | viscosity [mPa·s]
298.15 K | 654.9 | – | –
303.15 K | 650.64 | 1052.9 | 0.309

Settings | Normal boiling temperature [°C]
[2] | 68.70

CCCCCCCC [octane] + CC(C)OC(C)C
[1], x2 = 0
Settings | speed of sound [m/s] | viscosity [mPa·s]
– | 1152 | 0.477
